In article PMC5573408, “Pepcan-12 (RVD-hemopressin) is a CB2 receptor positive allosteric modulator constitutively secreted by adrenals and in liver upon tissue damage” (Scientific Reports, 2017):
Values joined by “and” are separate entries in the source; they are usually repeats but may differ in a detail not shown here. Equal values may be shown once. No end group written: not given here.

Assays:
hCB2 receptor [1] = target: T1, hCB2 receptor (Homo sapiens, UniProt P34972); test: Equilibrium binding / displacement of fluorescent pepcan-F4 on CHO-K1-hCB2 cells; design: expressed in transfected cells; host or cells: CHO-K1; settings: for Ki: 100 nM pepcan-F4
Method: The equilibrium dissociation constant (Kd value) of the fluorescein-labeled pepcan-12 derivative pepcan-F4 was determined using CHO-K1-hCB2 cells as previously described. Equilibrium saturation binding was determined experimentally, and maximal specific binding (saturation) was reached already at 5 min at 37 °C. Different concentrations of pepcans and 100 nM pepcan-F4 were incubated together with […] suspended in 200 μL of binding buffer in silanized plastic tubes, under shaking for 60 min at 37 °C. After centrifugation at 4 °C and washing with ice-cold binding buffer, the cells were resuspended in ice-cold PBS and transferred into 96-well black plates, where the fluorescence intensities were measured using a Tecan Farcyte reader (485 nm excitation/535 nm emission). The specific binding was determined after washing and subtracting the nonspecific fluorescence calculated in parallel experiments carried out in non-transfected CHO cells.

hCB2 receptor [2] = target: T1, hCB2 receptor; test: Radioligand binding assays with [3H]CP55,940 and [3H]WIN55,212-2 on CHO-K1-hCB2 membranes; design: expressed in transfected cells; host or cells: CHO-K1; settings: for enhancement of [3H]CP55,940 and [3H]WIN55,212-2 receptor binding: 100 nM and 1 μM; for Kb: pKB, ternary complex model
Method: After the incubation time, membrane suspensions were rapidly filtered through a 0.1% polyethyleneimine presoaked 96-well microplate bonded with GF/B glass fiber filters (UniFilter-96 GF/B, PerkinElmer Life Sciences) under vacuum and washed 12 times with 150 μL of ice-cold binding buffer Filters were added with 40 μL of MicroScint20 scintillation liquid, and radioactivity was measured with the Trilux top counter (PerkinElmer Life Sciences). Data were collected from 3–10 independent experiments, each performed in triplicate, and the nonspecific binding was subtracted. The results are expressed as a percentage of vehicle-treated samples.

hCB2 receptor [3] = target: T1, hCB2 receptor; test: [35S]GTPγS assay on hCB2 membranes; format: biochemical; design: expressed in transfected cells; host or cells: CHO-K1; settings: for EC50 / [35S]GTPγS assay Max. Effect: 2-AG, mean (95% CI)
Method: Assays were performed as previously described. Clean membranes expressing hCB2 were diluted in silanized plastic tubes with GTPγS binding buffer (50 mM Tris-HCl, 3 mM MgCl2, 0.2 mM EGTA and 100 mM NaCl at pH 7.4 supplemented with 0.5% fatty acid-free BSA) in the presence of 10 μM of GDP and 0.1 nM of [^35S]GTPγS. The mixture was kept on ice until the binding reaction was started by adding the vehicle or compounds. Non-specific binding was measured in presence of 10 μM GTPγS. The tubes were incubated at 30 °C for 90 min under shaking and then put on ice to stop the reaction. An aliquot (185 μL) of the reaction mixture was rapidly filtered through a 96-well microplate bonded with GF/B glass fibre filters previously pre-soaked with ice-cold washing buffer (50 mM of Tris-HCl pH 7.4 plus 0.1% fatty acid-free BSA). The filters were washed six times with 180 µL of washing buffer under vacuum. The radioactivity was measured after the addition of 45 µL of MicroScint20 scintillation cocktail. Specific binding was calculated by subtracting the residual radioactivity signal obtained in presence of an excess of GTPγS and the results were expressed as % of vehicle control.

hCB2 receptor [4] = target: T1, hCB2 receptor; test: cAMP assay in CHO-K1-hCB2 cells (GloSensor); format: cell-based; design: expressed in transfected cells; host or cells: CHO-K1; settings: for EC50: 2-AG, mean (95% CI)
Method: cAMP assays were performed in CHO-K1-hCB2 stably transfected with the pGloSensorTM 22-F plasmid (Promega) as previously described. Briefly, cells were seeded in 96-well plate and after attachment the medium was replaced by 40 µL of equilibration medium (GloSensor™ cAMP Reagent diluted in 5% v v^−1 of CO2-independent medium plus 10% FBS). The plates were incubated for 2 h at RT in the dark. […] Chemiluminescence was monitored continuously starting from immediately after the addition and for 30 min (keeping the plate at RT and in the dark). Basal levels of chemiluminescence (cells plus IBMX and vehicle without forskolin) were subtracted to the measured values. Results were normalized by subtracting the residual cAMP production and expressed as % of vehicle control.

hCB2 receptor [5] = target: T1, hCB2 receptor; test: Dissociation kinetics of [3H]CP55,940 by isotopic dilution; format: binding; design: expressed in transfected cells; settings: 1 μM CP55,940 added to bound [3H]CP55,940 (0.5 nM), 300 nM pepcan-12
Method: Dissociation kinetics experiments were performed as described before. […] […] […] After the incubation time, membrane suspensions were rapidly filtered through a 0.1% polyethyleneimine presoaked 96-well microplate bonded with GF/B glass fiber filters and washed as described above.

T1 sequence (P34972 whole entry): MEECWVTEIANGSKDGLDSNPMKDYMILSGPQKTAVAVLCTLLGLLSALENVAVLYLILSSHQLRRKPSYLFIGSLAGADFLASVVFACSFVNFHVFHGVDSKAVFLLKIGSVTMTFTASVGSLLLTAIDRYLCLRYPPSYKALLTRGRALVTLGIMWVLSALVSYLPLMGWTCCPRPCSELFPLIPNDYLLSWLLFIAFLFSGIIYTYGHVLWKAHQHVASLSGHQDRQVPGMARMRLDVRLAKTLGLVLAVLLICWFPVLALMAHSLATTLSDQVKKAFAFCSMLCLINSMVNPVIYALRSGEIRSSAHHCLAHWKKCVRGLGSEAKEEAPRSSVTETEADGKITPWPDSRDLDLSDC

## HAHKLRVDPVNFKLLSH [Pepcan-17]
hCB2 receptor [1]
  Ki: 183 ± 39.4 nM

## SALSDLHAHKLRVDPVNFKLLSH [Pepcan-23, putative precursor of pepcan-12]
hCB2 receptor [2]
  enhancement of [3H]CP55,940 and [3H]WIN55,212-2 receptor binding: did not exhibit any receptor interaction

## HKLRVDPVNFKLLSH [Pepcan-15]
hCB2 receptor [1]
  Ki: 77.8 ± 8.2 nM

## CCCCC/C=C\C/C=C\C/C=C\C/C=C\CCCC(=O)OC(CO)CO [Pepcan 2-AG, 2-arachidonoyl glycerol]
hCB2 receptor [3]; pepcan-12 0 nM
  EC50: 95.8 nM
  [35S]GTPγS assay Max. Effect: 235 (220–251) % of crtl
hCB2 receptor [3]; pepcan-12 10 nM
  EC50: 64.9 nM
  [35S]GTPγS assay Max. Effect: 238 (221–251) % of crtl
hCB2 receptor [3]; pepcan-12 30 nM
  EC50: 40.9 nM
  [35S]GTPγS assay Max. Effect: 254 (237–272) % of crtl
hCB2 receptor [3]; pepcan-12 100 nM
  EC50: 35.4 nM
  [35S]GTPγS assay Max. Effect: 291 (265–318) % of crtl
hCB2 receptor [4]; pepcan-12 0 nM
  EC50: 92.1 nM
hCB2 receptor [4]; pepcan-12 10 nM
  EC50: 102 nM
hCB2 receptor [4]; pepcan-12 30 nM
  EC50: 25.1 nM
hCB2 receptor [4]; pepcan-12 100 nM
  EC50: 12.4 nM

## SDLHAHKLRVDPVNFKLLSH [Pepcan-20]
hCB2 receptor [1]
  Ki: > 10000 nM

## KLRVDPVNFKLLSH [Pepcan-14]
hCB2 receptor [3]; no orthosteric ligand
  effect on [35S]GTPγS binding in absence of agonist: Lack of effects
hCB2 receptor [4]; no orthosteric ligand
  effect on cAMP levels in absence of agonist: Lack of effects
hCB2 receptor [2]
  enhancement of [3H]CP55,940 and [3H]WIN55,212-2 receptor binding: weaker yet still significant effects

## pepcan-F4: C-terminal fluorescence-labeled (fluorescein) pepcan-12 conjugate (RVDPVNFKLLSH; synthetic pepcan-12 (alpha-hemoglobin fragment)
hCB2 receptor [1]; specific saturation curve, read-out: apparent Kd for hCB2 receptors
  Kd: 123 ± 41.2 nM

## RVDPVNFKLLSH [Pepcan-12]
hCB2 receptor [5]
  Half-life (fast): 0.844 (0.703 to 1.057) min
  Half-life (slow): 49.90 (29.3 to 169.3) min
hCB2 receptor [1]
  Ki: 44.7 nM and ~50 nM
hCB2 receptor [2]; [3H]CP55,940 bound
  Kb: 58.9 nM
hCB2 receptor [2]; [3H]WIN55,212-2 bound
  Kb: 53.7 nM
